Converted amounts (≈) assume the structure as drawn. Counter-ions that a name gives are not always drawn.
How the values were obtained:
in vivo = test: in vivo; set-up: species or system Macaco; settings: monkey, 20 mg/kg
Protocol: Each of 20 mg/kg of the compounds obtained in Example 2, Example 25 and Example 28 was administered parenterally to Macaco and the half-time in blood was measured.
The concentrations of the compounds were measured according to HPLC method. Novapack C18 or Microbondapack C18 (trade name, produced by Waters Co.) was used as a column. Further, cefpiramide was used as a control drug.

C. freundii 1U692 = test: MIC; settings: Citrobacter freundii, 1U692
C. freundii GN7391 = test: MIC; settings: Citrobacter freundii, GN7391, C. freundii GN7391; Table 7
C. freundii 1R523 = test: MIC; settings: Citrobacter freundii, 1R523
K. pneumoniae 4at521 = test: MIC; settings: Klebsiella pneumoniae, 4AT521
C. freundii 5D60-1 = test: MIC; settings: Citrobacter freundii, 5D601
S. aureus Smith = test: MIC; settings: Staphylococcus aureus, Table 7
C. freundii 1R524 = test: MIC; settings: Citrobacter freundii, 1R524
E. colacae GN7471 = test: MIC; settings: Table 7
C. freundii 1U589 = test: MIC; settings: Citrobacter freundii, 1U589
E. cloacae 1V247 = test: MIC; format: cell-based; settings: Enterobacter cloacae, Table 8
Protocol: (§1) The minimum inhibition concentrations (MIC) of the compounds obtained in the respective examples described above were measured according to the standard method of Japanese Chemotherapy Association.

S. aureus IAA498 = test: MIC; format: cell-based; settings: Staphylococcus aureus, Table 7
Protocol: as §1

C. freundii 1R526 = test: MIC; settings: Citrobacter freundii, 1R526
P. aeruginosa GN10362 = test: MIC; settings: Pseudomonas aeruginosa, GN10362
C. freundii 1R527 = test: MIC; settings: Citrobacter freundii, 1R527
E. cloacae 1V25 = test: MIC; settings: Enterobacter cloacae
S. marcescens GN10857 = test: MIC; settings: Serratia marcescens, GN10857, S. marcescens GN10857; Table 7
E. coli GN5482 = test: MIC; settings: Escherichia coli, GN5482, E. coli GN5482; Table 7
P. maltophilia OF247 = test: MIC; settings: Stenotrophomonas maltophilia, Table 7
E. cloacae 908RN = test: MIC; settings: Enterobacter cloacae, E. colacae 908RN, Table 7
P. vulgaris GN7919 = test: MIC; settings: Proteus vulgaris, GN7919
P. aeruginosa 5D58-1 = test: MIC; settings: Pseudomonas aeruginosa, 5D581, P. aeruginosa 5D58-1; Table 7
E. coli ML4707 = test: MIC; settings: Escherichia coli, ML4707, E. coli ML4707; Table 7
E. cloacae 5D52-2 = test: MIC; settings: Enterobacter cloacae, 5D522
P. aeruginosa 4au542 = test: MIC; settings: Pseudomonas aeruginosa, 4AU542, P. aeruginosa 4au542; Table 7
P. cepacia OF189 = test: MIC; settings: Burkholderia cepacia, OF189, P. cepacia OF189; Table 7
E. cloacae 5D63-2 = test: MIC; settings: Enterobacter cloacae, 5D632

| MIC (C. freundii 1U692) | MIC (C. freundii GN7391) | MIC (C. freundii 1R523) | MIC (K. pneumoniae 4at521) | MIC (C. freundii 5D60-1) | MIC (S. aureus Smith) | MIC (C. freundii 1R524) | MIC (E. colacae GN7471) | MIC (C. freundii 1U589) | MIC (E. cloacae 1V247) | MIC (S. aureus IAA498) | MIC (C. freundii 1R526) | MIC (P. aeruginosa GN10362) | MIC (C. freundii 1R527) | MIC (E. cloacae 1V25) | MIC (S. marcescens GN10857) | MIC (E. coli GN5482) | MIC (P. maltophilia OF247) | MIC (E. cloacae 908RN) | MIC (P. vulgaris GN7919) | SMILES | other results |
| --- | --- | --- | --- | --- | --- | --- | --- | --- | --- | --- | --- | --- | --- | --- | --- | --- | --- | --- | --- | --- | --- |
| – | – | – | – | – | – | – | – | – | – | – | – | – | – | – | – | – | – | – | – | Cc1cc(O)c(C(=O)N[C@@H](C(=O)N[C@@H]2C(=O)N3C(C(=O)O)=C(CSc4nnnn4C)CS[C@H]23)c2ccc(O)cc2)cn1 [Cefpiramide, cefpiramide, reference compound] | half-life (in vivo): 2.5 h |
| 6.25 µg/mL (≈ 7.68 µM) | 25 µg/mL (≈ 30.7 µM) | 1.56 µg/mL (≈ 1.92 µM) | 0.025 µg/mL (≈ 0.0307 µM) | 6.25 µg/mL (≈ 7.68 µM) | 6.25 µg/mL (≈ 7.68 µM) | 1.56 µg/mL (≈ 1.92 µM) | 0.39 µg/mL (≈ 0.479 µM) | 6.25 µg/mL (≈ 7.68 µM) | 12.5 µg/mL (≈ 15.4 µM) | 12.5 µg/mL (≈ 15.4 µM) | 3.13 µg/mL (≈ 3.85 µM) | 0.1 µg/mL (≈ 0.123 µM) | 1.56 µg/mL (≈ 1.92 µM) | 12.5 µg/mL (≈ 15.4 µM) | 0.39 µg/mL (≈ 0.479 µM) | 0.025 µg/mL (≈ 0.0307 µM) | 0.39 µg/mL (≈ 0.479 µM) | 1.56 µg/mL (≈ 1.92 µM) | 1.56 µg/mL (≈ 1.92 µM) | CC(C)(ON=C(C(=O)NC1C(=O)N2C(C(=O)O)=C(CSc3ccnc4nc(C(=O)O)nn34)CS[C@H]12)c1csc(N)n1)C(=O)NNC(=O)c1ccc(O)c(O)c1 (some centres unmarked) [Example 56, 7-{2-[2-Amino-1,3-thiazol-4-yl]-2-[1-(3-(3,4-dihydroxybenzoyl)carbazoyl)-1-methylethoxyimino]acetamido}-3-[(2-carboxy-s-triazolo[1,5-a]pyrimidin-7-yl)thiomethyl]-3-cephem-4-carboxylic acid] | MIC (P. aeruginosa 5D58-1): 0.05 µg/mL (≈ 0.0614 µM); MIC (E. coli ML4707): 0.025 µg/mL (≈ 0.0307 µM); MIC (E. cloacae 5D52-2): 0.1 µg/mL (≈ 0.123 µM); MIC (P. aeruginosa 4au542): 0.2 µg/mL (≈ 0.246 µM); MIC (P. cepacia OF189): < 0.006 µg/mL; MIC (E. cloacae 5D63-2): 1.56 µg/mL (≈ 1.92 µM) |
| 1.56 µg/mL (≈ 1.96 µM) | 3.13 µg/mL (≈ 3.93 µM) | 0.2 µg/mL (≈ 0.251 µM) | 0.012 µg/mL (≈ 0.0151 µM) | 1.56 µg/mL (≈ 1.96 µM) | 1.56 µg/mL (≈ 1.96 µM) | 0.2 µg/mL (≈ 0.251 µM) | 1.56 µg/mL (≈ 1.96 µM) | 3.13 µg/mL (≈ 3.93 µM) | 6.25 µg/mL (≈ 7.84 µM) | 3.13 µg/mL (≈ 3.93 µM) | 1.56 µg/mL (≈ 1.96 µM) | 0.1 µg/mL (≈ 0.125 µM) | 3.13 µg/mL (≈ 3.93 µM) | 6.25 µg/mL (≈ 7.84 µM) | 1.56 µg/mL (≈ 1.96 µM) | < 0.006 µg/mL | 1.56 µg/mL (≈ 1.96 µM) | 0.39 µg/mL (≈ 0.489 µM) | 0.78 µg/mL (≈ 0.979 µM) | Cc1cc(SCC2=C(C(=O)O)N3C(=O)C(NC(=O)C(=NOC(C)(C)C(=O)NNC(=O)c4ccc(O)c(O)c4)c4csc(N)n4)[C@H]3SC2)n2nc(C)cc2n1 (some centres unmarked) [Example 57, 7-{2-[2-Amino-1,3-thiazol-4-yl]-2-[1-(3-(3,4-dihydroxybenzoyl)carbazoyl)-1-methylethoxyimino]acetamido}-3-[(2,5-dimethylpyrazolo[1,5-a]pyrimidin-7yl)thiomethyl]-3-cephem-4-carboxylic acid] | MIC (P. aeruginosa 5D58-1): 0.1 µg/mL (≈ 0.125 µM); MIC (E. coli ML4707): < 0.006 µg/mL; MIC (E. cloacae 5D52-2): 0.1 µg/mL (≈ 0.125 µM); MIC (P. aeruginosa 4au542): 0.1 µg/mL (≈ 0.125 µM); MIC (P. cepacia OF189): 0.012 µg/mL (≈ 0.0151 µM); MIC (E. cloacae 5D63-2): 0.39 µg/mL (≈ 0.489 µM) |
| 1.56 µg/mL (≈ 1.99 µM) | 3.13 µg/mL (≈ 4 µM) | 0.39 µg/mL (≈ 0.498 µM) | 0.012 µg/mL (≈ 0.0153 µM) | 1.56 µg/mL (≈ 1.99 µM) | 1.56 µg/mL (≈ 1.99 µM) | 0.39 µg/mL (≈ 0.498 µM) | 1.56 µg/mL (≈ 1.99 µM) | 3.13 µg/mL (≈ 4 µM) | 6.25 µg/mL (≈ 7.98 µM) | 3.13 µg/mL (≈ 4 µM) | 3.13 µg/mL (≈ 4 µM) | 0.1 µg/mL (≈ 0.128 µM) | 1.56 µg/mL (≈ 1.99 µM) | 6.25 µg/mL (≈ 7.98 µM) | 1.56 µg/mL (≈ 1.99 µM) | < 0.006 µg/mL | 1.56 µg/mL (≈ 1.99 µM) | 0.39 µg/mL (≈ 0.498 µM) | 1.56 µg/mL (≈ 1.99 µM) | Cc1cc(SCC2=C(C(=O)O)N3C(=O)C(NC(=O)C(=NOC(C)(C)C(=O)NNC(=O)c4ccc(O)c(O)c4)c4csc(N)n4)[C@H]3SC2)n2nccc2n1 (some centres unmarked) [Example 58, 7-{2-[2-Amino-1,3-thiazol-4-yl]-2-[1-(3-(3,4-dihydroxybenzoyl)carbazoyl)-1-methylethoxyimino]acetamido}-3-[(5-methylpyrazolo[1,5-a]pyrimidin-7-yl)thiomethyl]-3-cephem-4-carboxylic acid] | MIC (P. aeruginosa 5D58-1): 0.05 µg/mL (≈ 0.0639 µM); MIC (E. coli ML4707): < 0.006 µg/mL; MIC (E. cloacae 5D52-2): 0.1 µg/mL (≈ 0.128 µM); MIC (P. aeruginosa 4au542): 0.2 µg/mL (≈ 0.255 µM); MIC (P. cepacia OF189): 0.012 µg/mL (≈ 0.0153 µM); MIC (E. cloacae 5D63-2): 0.39 µg/mL (≈ 0.498 µM) |

| SMILES | MIC (C. freundii 1U692) | MIC (C. freundii GN7391) | MIC (C. freundii 1R523) | MIC (K. pneumoniae 4at521) | MIC (C. freundii 5D60-1) | MIC (S. aureus Smith) | MIC (C. freundii 1R524) | MIC (E. colacae GN7471) | MIC (C. freundii 1U589) | MIC (E. cloacae 1V247) | MIC (S. aureus IAA498) | MIC (C. freundii 1R526) | MIC (P. aeruginosa GN10362) | MIC (C. freundii 1R527) | MIC (E. cloacae 1V25) | MIC (S. marcescens GN10857) | MIC (E. coli GN5482) | MIC (P. maltophilia OF247) | MIC (E. cloacae 908RN) | MIC (P. vulgaris GN7919) | other results |
| --- | --- | --- | --- | --- | --- | --- | --- | --- | --- | --- | --- | --- | --- | --- | --- | --- | --- | --- | --- | --- | --- |
| CC(=O)Oc1ccc(C(=O)NNC(=O)C(C)(C)ON=C(C(=O)NC2C(=O)N3C(C(=O)O)=C(CSc4cc(C)nc5nc(C(F)(F)F)nn45)CS[C@H]23)c2csc(N)n2)cc1OC(C)=O (some centres unmarked) [Example 48, 7-{2-[2-Amino-1,3-thiazol-4-yl]-2-[1-(3-(3,4-diacetoxybenzoyl)carbazoyl)-1-methylethoxyimino]acetamido}-3-[(5-methyl-2-trifluoromethyl-s-triazolo[1,5-a]pyrimidin-7-yl)-thiomethyl]-3-cephem-4-carboxylic acid] | 12.5 µg/mL (≈ 13.4 µM) | 12.5 µg/mL (≈ 13.4 µM) | 0.78 µg/mL (≈ 0.833 µM) | 0.1 µg/mL (≈ 0.107 µM) | 12.5 µg/mL (≈ 13.4 µM) | 6.25 µg/mL (≈ 6.68 µM) | 0.78 µg/mL (≈ 0.833 µM) | 12.5 µg/mL (≈ 13.4 µM) | 12.5 µg/mL (≈ 13.4 µM) | 50 µg/mL (≈ 53.4 µM) | 12.5 µg/mL (≈ 13.4 µM) | 12.5 µg/mL (≈ 13.4 µM) | 0.78 µg/mL (≈ 0.833 µM) | 25 µg/mL (≈ 26.7 µM) | 50 µg/mL (≈ 53.4 µM) | 12.5 µg/mL (≈ 13.4 µM) | 0.05 µg/mL (≈ 0.0534 µM) | 12.5 µg/mL (≈ 13.4 µM) | 3.13 µg/mL (≈ 3.34 µM) | 3.13 µg/mL (≈ 3.34 µM) | MIC (P. aeruginosa 5D58-1): 0.78 µg/mL (≈ 0.833 µM); MIC (E. coli ML4707): 0.1 µg/mL (≈ 0.107 µM); MIC (E. cloacae 5D52-2): 1.56 µg/mL (≈ 1.67 µM); MIC (P. aeruginosa 4au542): 1.56 µg/mL (≈ 1.67 µM); MIC (P. cepacia OF189): < 0.006 µg/mL; MIC (E. cloacae 5D63-2): 1.56 µg/mL (≈ 1.67 µM) |
| CC(=O)Oc1ccc(C(=O)NNC(=O)C(C)(C)ON=C(C(=O)NC2C(=O)N3C(C(=O)O)=C(CSc4cc(C)nc5c(C(=O)O)cnn45)CSC23)c2csc(N)n2)cc1OC(C)=O (centres unmarked) [Example 53, 7-{2-[2-amino-1,3-thiazol-4-yl]-2-[1-(3-(3,4-diacetoxybenzoyl)carbazoyl)-1-methylethoxyimino]acetamido}-3-[(3-carboxy-5-methylpyrazolo[1,5-a]pyrimidin-7-yl)thiomethyl-3-cephem-4-carboxylic acid sodium salt] | 1.56 µg/mL | 6.25 µg/mL | 0.78 µg/mL | 0.012 µg/mL | 3.13 µg/mL | 12.5 µg/mL | 0.78 µg/mL | 0.78 µg/mL | 3.13 µg/mL | 12.5 µg/mL | 12.5 µg/mL | 0.78 µg/mL | 0.05 µg/mL | 0.78 µg/mL | 6.25 µg/mL | 0.78 µg/mL | 0.012 µg/mL | 0.78 µg/mL | 0.78 µg/mL | 1.56 µg/mL | MIC (P. aeruginosa 5D58-1): 0.1 µg/mL; MIC (E. coli ML4707): 0.012 µg/mL; MIC (E. cloacae 5D52-2): 0.1 µg/mL; MIC (P. aeruginosa 4au542): 0.05 µg/mL; MIC (P. cepacia OF189): < 0.006 µg/mL; MIC (E. cloacae 5D63-2): 0.39 µg/mL |
